This note sets out measurements from PMC5734042, “Deciphering the Origin, Evolution, and Physiological Function of the Subtelomeric Aryl-Alcohol Dehydrogenase Gene Family in the Yeast Saccharomyces cerevisiae” (Applied and Environmental Microbiology, 2017).

What all share (conditions): NADPH co-substrate
One data set deals with T1, PcAad1p (Phanerodontia chrysosporium, UniProt Q01752).
T1 construct: full length, plasmid pGS-21a-PcAad1, N-terminal His6-GST and C-terminal His6 tags kept, E. coli BL21 Star; coding primer starts ATGAACATCTGGGCACCCG (MNIWAP)
T1 sequence (Q01752 1-385): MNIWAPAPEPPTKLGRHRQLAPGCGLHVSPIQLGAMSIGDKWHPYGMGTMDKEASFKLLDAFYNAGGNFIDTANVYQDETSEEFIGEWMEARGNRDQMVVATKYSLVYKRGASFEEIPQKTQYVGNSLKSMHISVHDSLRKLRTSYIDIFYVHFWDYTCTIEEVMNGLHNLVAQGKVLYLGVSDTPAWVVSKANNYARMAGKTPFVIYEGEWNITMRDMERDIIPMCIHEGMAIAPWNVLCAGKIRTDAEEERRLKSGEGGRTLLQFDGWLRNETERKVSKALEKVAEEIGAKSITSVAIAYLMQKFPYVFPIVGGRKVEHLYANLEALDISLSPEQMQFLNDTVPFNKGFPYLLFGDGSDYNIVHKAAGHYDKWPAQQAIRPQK
Description: spectrophotometric NADPH consumption at […] nm. Format: biochemical.

For the next data set, the target named is T2, ScAad10^-35Cp (Saccharomyces cerevisiae, UniProt P47182).
T2 construct: gene AAD10; resurrected pseudogene: in-frame upstream 264 bp (88 residues) restored to annotated Aad10, stop TAG to CAG (Gln) at nt -35; annotated natural ORF (YJR155W) lacks these residues; N-terminal His6-GST and C-terminal His6 tags, E. coli BL21 Star
T2 sequence (P47182 1-288): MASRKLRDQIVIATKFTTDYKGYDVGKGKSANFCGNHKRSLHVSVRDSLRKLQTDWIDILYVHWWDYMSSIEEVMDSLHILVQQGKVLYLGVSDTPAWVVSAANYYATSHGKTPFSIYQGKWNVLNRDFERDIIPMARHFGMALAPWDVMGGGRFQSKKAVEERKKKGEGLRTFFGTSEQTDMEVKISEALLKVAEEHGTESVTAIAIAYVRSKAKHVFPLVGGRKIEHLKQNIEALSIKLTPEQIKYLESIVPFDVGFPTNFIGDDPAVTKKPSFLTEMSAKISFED
As to the kind of experiment: spectrophotometric NADPH consumption at […] nm. Format: biochemical.

Substrate in the data set “purified protein”: O=Cc1ccc(CO)o1
As to the kind of experiment: purified protein. Format: biochemical, Phanerodontia chrysosporium.

On to `COc1ccc(C=O)cc1` [4-methoxybenzaldehyde], for which the Km on PcAad1p stood at 87.3 ± 116 µM.
On to `O=Cc1ccc(CO)o1` [hydroxymethylfurfural], for which the Km on ScAad10^-35Cp came out at 608 ± 246 µM.
With `O=CCc1ccccc1` [phenylacetaldehyde], at PcAad1p, the Km turned out to be 527 ± 72.5 µM.

B1: PcAad1p (Phanerodontia chrysosporium) (protein)
chain: T1 sequence (Q01752 1-385)
notes: full length, plasmid pGS-21a-PcAad1, N-terminal His6-GST and C-terminal His6 tags kept, E. coli BL21 Star; coding primer starts … (MNIWAP)
Take B1: in “purified protein”, the Km stood at 171 ± 36.7 µM and the Vmax was 2.40 ± 0.27 in micromoles per minute per mg.

As a reminder, the Km is the substrate concentration at which the rate is half of its maximum.
